Laboratory results reported in publication PMC3527734, “Peripheral injections of melanin-concentrating hormone receptor 1 antagonist S38151 decrease food intake and body weight in rodent obesity models” (Frontiers in Endocrinology, 2012).
Where no end group is shown, it is not given here.

Legend:
Zucker fa/fa rats [1] = details: cyclophosphamide 100 mg/kg i.p., S38151 20 nmol/kg (28 μg/kg) i.c.v., n = 8
Protocol: These experiments were performed with modifications to previously described methods (Madden et al., [1999]). Rats were individually housed in wire-bottomed plastic cages with free access to both food pellets (6 mm diameter A03 UAR) and kaolin powder. The food pellets were presented in a small porcelain bowl on the floor of the cage. The kaolin powder was presented in a metal feeding dish attached to the inside of the cage. After a 2-week habituation period to these conditions, the animals were randomized into five treatment groups based on the quantity of food eaten during the stabilization period. In addition, those rats that consistently spilled the kaolin powder were eliminated from the study. One day after randomization, the animals were injected just before the beginning of the dark phase with either cyclophosphamide (100 mg/kg, i.p.), or S38151 [20 nmol/kg (28 μg/kg) i.c.v.] or vehicle [(artificial CSF) i.c.v.]. After injection, the quantity of kaolin and food ingested during the following 24-h period was determined. Food or kaolin spilled by the animals was collected at the end of the experiment, and total food and kaolin intake measurements were corrected for this loss.
Figure 5 The effects of S38151 on conditioned taste aversion and pica in Zucker fa/fa rats. (A) In the conditioned taste aversion test, after a period of habituation of the animals to the experimental protocol, Zucker fa/fa rats were presented with 0.2% saccharine for 20 min after drinking water was removed from their cages for 18 h (test day 0). Animals were then injected (i.p.) with vehicle or lithium chloride, or with S38151 (20 nmol/kg, i.c.v). On test days 4, 7, 11, and 14, rats were presented with 0.2% saccharine, and the quantity consumed during a 20-min period was determined. Results are expressed as mean ± SEM (n = 10–11 rats per group). […] (B) In the pica test, Zucker fa/fa rats were injected (i.c.v.) with 20 nmol/kg S38151, or an equivalent volume of artificial cerebrospinal fluid vehicle. Food and kaolin intake during the following 24-h period were each measured. Results are expressed as mean ± SEM (n = 8 rats per group).

Zucker fa/fa rats [2] = assay: conditioned taste aversion; format: in vivo, rat; details: test days 4, 7, 11, 14 versus control; lithium chloride 75 mg/kg i.p.; S38151 20 nmol/kg i.c.v.; n = 10-11
Wistar rats = assay: NEI-MCH-induced food intake after acute i.c.v. injection; format: in vivo, rat; details: NEI-MCH alone or any combination of NEI-MCH and S38151, i.c.v.
Text: Wistar and Zucker fa/fa rats were anesthetized with Forène (Abbott Laboratories, Queenborough, UK), and a stainless steel guide cannula (Plastic Products Co, Roanoke, Va, USA) was stereotaxically implanted into the right lateral ventricle at the following coordinates relative to the bregma: AP −0.8 mm, L = −1.2 mm, and V = −3.5 mm. After a 7-day recovery period, during which the animals were handled each day to minimize non-specific stress, they were lightly anesthetized with Forène. Human/mouse/rat MCH (1 μg in a volume of 2.5 μ L, Bachem, Voisins-le-Bretonneux, France) or an equivalent volume of artificial cerebrospinal fluid (CSF) was then injected through the intraventricular cannula. Immediately after injection, the animals quickly recovered and were returned to their home cages. Only those animals responding within 2 h with a robust increase in food intake, indicating correct cannula placement, were used in the experiments described below. Two days after MCH injection, the rats were randomly assigned to different groups and studied in one of the following protocols.
Wistar rats were habituated for at least 2 weeks before experiment to a diet of food pellets (6 mm diameter) of the following composition: 67.5% food flour, 26.5% sucrose, 5% gum tragacanth, and 1.25% magnesium stearate (A03 UAR, Orge, France). The food pellets were present in a metal food hopper attached to the inside of each cage. At 09:00 on the day of study, the animals were lightly anesthetized with Forene® (Abbott, France). Thereafter, rats were injected intra-cerebroventricular (i.c.v.) with vehicle (artificial CSF) or with S38151 [0.5, 5, 10, 20, 30, or 50 nmol/kg ([…], 14, 28, 42, or 70 μg/kg, respectively)] in a volume of 2.5 μL, 20 min prior to the injection of human/rat NEI-MCH [5 nmol/kg (18.7 μg/kg) in a volume of 2.5 μL].
Food intake was measured at different times after peptide injection. Food spillage was carefully quantified during each time period, and intake measurements were corrected for this loss. At the end of the experiments, the animals were euthanized and the positions of the cannulae were assessed by the injection of 100 μ L Evans blue dye (2 mg/mL) followed by the visual examination of brain slices. Only data obtained from animals with correctly positioned cannulae were included in the final data analysis.
Figure 3 The effect of S38151 on NEI-MCH-induced food intake in Wistar rats after acute central administration. Satiated rats were injected (i.c.v.) at the beginning of the light phase with 5 μg NEI-MCH, 5 μg NEI-MCH + differing doses of S38151 (0.5–50 nmol/kg), or an equivalent volume of artificial cereblospinal fluid vehicle (5 μL). Cumulative food intake was measured at 1, 2, 4, 6, and 24 h post-injection.

C57BL/6J mice = assay: daily i.c.v. MCH, food intake and body weight in lean mice; format: in vivo, mouse; details: n = 10
Protocol: (§1) For the MCH daily repeated i.c.v. injection studies, 13-week-old female C57BL/6J and ob/ob mice were used (Harlan, Gannat, France).
(§2) Figure 7 The effect of repeated daily central administration of MCH to lean (C57BL/6J) and obese (ob/ob) mice. C57BL/6J (A and B) and ob/ob (C and D) mice were administered MCH (5 μg/mouse/day) or artificial cerebrospinal fluid vehicle through i.c.v. injections for 5 consecutive days. Results are expressed as mean ± SEM (n = 10 mice per group). […] TEXT PRINTED IN THE PICTURE: (A) MCH: Food Intake/24h (g), C57BL/6J: Δ = 1.3 g | (B) MCH: Δ Body Weight (g), C57BL/6J: Δ = 1.3 g | (C) MCH: Food Intake/24h (g), ob/ob: Δ = 3.2 g | (D) MCH: Δ Body Weight (g), ob/ob: Δ = 2.1 g DOUBTS OF THE COPYIST ABOUT THIS PICTURE: The Δ values are printed beside the curve pairs with no substance label; I assigned them to MCH, reading them as the MCH versus Control difference.

ob/ob mice = assay: daily i.c.v. MCH, food intake and body weight in obese mice; format: in vivo; details: MCH 5 μg/mouse/day i.c.v. for 5 days, n = 10
Protocol: as §1, §2

O=P1(N(CCCl)CCCl)NCCCO1 (centres unmarked) [Cyclophosphamide, cyclophosphamide, reference compound]
kaolin intake, 24 h, pica test (Zucker fa/fa rats [1]; vehicle 0.05 ± 0.01 g): significant increase | food intake, 24 h, pica test (Zucker fa/fa rats [1]; vehicle 27 ± 1 g): nearly complete suppression

[Cl-].[Li+] [lithium chloride, reference compound]
0.2% saccharine consumption (Zucker fa/fa rats [2]): significant reduction

NEI-MCH: stable precursor of melanin-concentrating hormone, human/rat NEI-MCH (EIGDEENSAKFPIGRRDFDMLRCMLGRVYRPCWQV; ends and bridges not checked; cysteine pairing not given here; UniProt P20382 131-165, looked up, fragment) [reference compound]
food intake during the entire 24-h period versus control group (Wistar rats): not significantly altered

Melanin-concentrating hormone [MCH]
Δ food intake vs. controls, day 5 (C57BL/6J mice; MCH 5 μg/mouse/day (100 nmol/kg/day) i.c.v. for 5 days): +1.3 g | Δ body weight vs. controls, day 5 (C57BL/6J mice; MCH 5 μg/mouse/day i.c.v. for 5 days): +1.3 g | Δ body weight vs. controls, after 5 days (ob/ob mice): +2.1 g | Δ food intake vs. controls, day 5 (ob/ob mice): +3.2 g
